Data published in PMC8945686, “Anticancer Effects with Molecular Docking Confirmation of Newly Synthesized Isatin Sulfonamide Molecular Hybrid Derivatives against Hepatic Cancer Cell Lines” (Biomedicines, 2022).
Marks after values point to notes of the source that are not given here.

How the values were obtained:
[1] = tested on: HepG2 cells; assay: MTT cytotoxicity assay on HepG2 cells; assay type: cell-based; settings: Homo sapiens; for cytotoxicity at 100 ppm: 48 h, 100 p.p.m (μg/mL), read-out: % Death Rate at 100 p.p.m (μg/mL) HepG2; for IC50: HepG2, 48 h
Procedure: (§1) MTT-based cell viability assay was carried out to evaluate the antiproliferation potential of the target compounds on HCC cell lines (HepG2 and Huh7). The half maximal inhibitory concentration (IC50) values were calculated against DMSO non-treated HepG2 cells (negative control) and Dox-treated HepG2 cells (positive control). The assay was conducted using 3-(4, 5-di-MethylThiazol-2-yl)-2,5-diphenyl Tetrazolium bromide (MTT) to test cell viability, according to the method described by Mosmann with minor changes. The yellow MTT is reduced in the viable cells to purple formazan. The insoluble formazan is solubilized by DMSO to colored solution measured spectrophotometrically. Briefly, cells were seeded in a 96-well plate at density of 1 × 10^4 cells/well for 24 h in 5% CO2 incubator at 37 °C to allow their adherence. […] After incubation, 20 μL of a 5 mg/mL MTT solution were mixed with the contents of each well, and the plate was incubated for another 4 h. Then, the medium was suctioned, and the wells were washed with PBS. After 2 h of drying, 200 μL of DMSO was added to each well. The plate was set on a shaker to dissolve the formazan crystals. Then, the absorbance was measured spectrophotometrically at 570 nm with a reference wavelength of 630 nm using ELX800 UV universal microplate reader (BioTek Instruments Inc., VT, Santa Clara, CA, USA).
(§2) All experiment conditions were tested in three replicates. The % cell viability was calculated from the following equation: (mean absorbance of treated sample/mean absorbance of negative control sample) × 100. The % death rate = 100 -% cell viability, and the inhibitory concentration of 50% (IC50) was measured from the exponential curve of viability against concentration (dose–response curve).

[2] = tested on: Huh7 cells; assay: MTT cytotoxicity assay on Huh7 cells; assay type: cell-based, human; settings: for IC50: Homo sapiens, Huh-7, 48 h
Procedure: as §1, §2

[3] = tested on: HepG2 cells; assay: Annexin V/FITC-PI apoptosis assay; assay type: cell-based, human; settings: HepG2, IC50 of the compound, 24 h (method says 48 h)
Procedure: Annexin V/PI double staining kit (eBiosciencesDx) was used to detect apoptotic activity of the selected isatin sulfonamide derivatives. The Annexin V corresponding signal provides a very sensitive marker for cellular apoptosis, while PI was used to detect necrotic or late apoptotic cells, identified by the loss of plasma integrity and loss of nuclear membranes.
Briefly, 1 × 10^5 cells/mL of HepG2 cells were seeded into a 6-well plate and incubated at 37 °C, 5% CO2, overnight. […] After time elapsed, trypsinization of cells was carried out. Washing was done by PBS once, followed by fixation using 70% ethanol. Fixed cells were stored at 4 °C for 2 h, then centrifuged at 500× g for 5 min. Again, cells were washed with PBS prior to staining. An amount of 200 μL of the staining solution (annexin V- fluorescein 5-isothiocyanate (FITC) and PI in binding buffer (10 mM HEPES, 140 mM NaCl, and 2.5 mM CaCl2 at pH 7.4)) were added to the cell suspension and incubated at 37 °C for 20 to 30 min in dark and analyzed with a fluorescence-activated cell sorter (FACS) (BD FACSCalibur, BD Biosciences, California, USA). Data were analyzed using ModFit LT v2.0 (Verity Software House, Topsham, Maine, USA).
These plots were divided into four regions corresponding to: • (1) Viable cells, which are negative to both probes (PI/FITC −/−), • (2) Apoptotic cells, which are PI negative and Annexin positive (PI/FITC −/+), • (3) Late apoptotic cells, which are both PI and Annexin positive (PI/FITC +/+), • (4) Necrotic cells, which are PI positive and Annexin negative (PI/FITC+/−).

[4] = In vitro safety/cell viability MTT assay on normal RPE1 cells; assay type: cell-based, human; settings: human, RPE1 cells (noncancerous), normal RPE1 cells, MTT
[5] = tested on: mice; assay: In vivo acute (14-day) oral toxicity study; settings: for S.ALT / S.AST / S.Creatinine / S.D.Bilirubin / S.T.Bilirubin / S.Urea: 14 days after single dose, compounds 250 mg/kg oral, doxorubicin 15 mg/kg I.P; for Survival over the treatment period (14 days) / Physical or abnormal changes (body weight, skin, fur, eyes, behavior, overall appearance): single acute oral dose of 250 mg/kg; for Physical or abnormal changes (body weight, skin, fur, eyes, behavior, overall appearance): 14 days
Description: GPower 3.0.10 software was used to estimate the sample size needed for the experiment and the number of mice per group but, according to the Organization for Economic Cooperation and Development (OECD) Test Guidelines No. 407 (OECD, 2008 and updated 2017) and under the International Academy of Science’s Guide for the Care and Use of Laboratory Animals, as well as the ARRIVE guidelines, to use the least number of mice per group for the acute single dose oral toxicity test.
Animals were divided randomly into nine groups (5 animals per group). Before the experiment, the body weight (BW) of all mice was recorded. All mice were made to fast for 24 h and treated once (day zero) then carefully monitored for 14 days.
Normal control group: mice received saline orally once;
Negative control group: mice received vehicle (DMSO) orally once;
Positive control group: mice were injected with Dox (15 mg/kg BW, i.p.) once.
Isatin-sulfonamide-derivative-compound-treated groups (2a, 3a, 3d and 4b, 4c and 4d) of mice received 250 mg/kg BW of each orally once.
The animals’ BWs were recorded at the end of the 14 days of observation. Blood samples were collected from the retro-orbital plexus and allowed to clot. Sera were prepared by centrifugation at 4000 rpm for 15 min and then kept frozen at − 80 °C for liver and kidney function tests (LFTs and KFTs). Thereafter, mice were deprived of food overnight, euthanized, and sacrificed by cervical dislocation. Liver and kidney tissues were collected, washed with ice-cold saline, and weighed. Excised weighed livers and kidneys were fixed in a suitable buffer for histological examination.
Liver and kidney tissues were fixed in 10% neutral buffered formaldehyde overnight and then embedded in paraffin, […] in serial grades of alcohols, cleared in xylene, and were subjected to […], where 4 μm thick tissue sections were cut by rotatory microtome. Tissue sections were stained with hematoxylin and eosin (H and E) for histological examination using full HD light microscopic imaging system (Leica Microsystems GmbH, Wetzlar, Germany). Standard procedures for sample fixation and staining were done as previously described.

Compound | cytotoxicity at 100 ppm [1] [%] | IC50 [1] [µM] | IC50 [2] [µM] | %Cell Death Late Apoptosis [3] [%] | % Death Rate at 100 p.p.m (μg/mL) Huh7 ([2]; 48 h, 100 p.p.m (μg/mL)) | CC50 at 48 h [4] [µM] | viability at 48 h, 100 p.p.m (μg/mL) [4] [%] | S.ALT [5] | S.AST [5] | S.Creatinine [5] | S.D.Bilirubin [5] | S.T.Bilirubin [5] | S.Urea [5] | Survival over the treatment period (14 days) [5] | Physical or abnormal changes (body weight, skin, fur, eyes, behavior, overall appearance) [5]
N#C/C(C(N)=O)=C1/C(=O)Nc2ccc(S(=O)(=O)N3CCCCC3)cc21 [Compound 2b] | 10.2 | > 100 | > 100 |  |  |  |  |  |  |  |  |  |  |  | 
Nc1ccc(C(=O)CC2(O)C(=O)Nc3ccc(S(=O)(=O)N4CCCCC4)cc32)cc1 (centres unmarked) [Compound 3c] | 11.5 | > 100 | > 100 | 18.08 |  |  |  |  |  |  |  |  |  |  | 
Nc1cccc(C(=O)CC2(O)C(=O)Nc3ccc(S(=O)(=O)N4CCCCC4)cc32)c1 (centres unmarked) [Compound 3b] | 1.2 | > 100 | > 100 |  |  |  |  |  |  |  |  |  |  |  | 
CCOC(=O)/C(C#N)=C1\C(=O)Nc2ccc(S(=O)(=O)N3CCCCC3)cc21 [Compound 2a] | 81.5 | 54.6 ± 2 | 40 ± 3.8 |  | 100 * % | 40.3 ± 1.61 | 4.4 | 28.42 ± 0.27 ^^ U/L | 37.11 ± 0.35 ^^ U/L | 0.59 ± 0.04 ^^ mg/dL | 0.16 ± 0.003 ^^ mg/dL | 0.65 ± 0.018 ^^ mg/dL | 52.24 ± 0.65 ^^ mg/dL | survived | No physical or abnormal changes were observed
O=C1Nc2ccc(S(=O)(=O)N3CCCCC3)cc2/C1=C/C(=O)c1ccc(O)cc1 [Compound 4d] | 100 | 13.3 ± 0.75 | 18.8 ± 0.8 |  |  | 11.9 ± 0.7 | 0 | 30.14 ± 0.93 ^^ U/L | 38.72 ± 1.37 ^#,^ U/L | 0.85 ± 0.03 ^^ mg/dL | 0.18 ± 0.004 ^^ mg/dL | 0.69 ± 0.016 ^^ mg/dL | 48.18 ± 0.53 ^^ mg/dL | survived | No physical or abnormal changes were observed
O=C(CC1(O)C(=O)Nc2ccc(S(=O)(=O)N3CCCCC3)cc21)c1ccc(O)cc1 (centres unmarked) [Compound 3d] | 19.5 | > 100 | > 100 |  |  |  |  |  |  |  |  |  |  |  | 
Cc1ccc(C(=O)/C=C2\C(=O)Nc3ccc(S(=O)(=O)N4CCCCC4)cc32)cc1 [Compound 4a] | 100 | 12 ± 0.4 | > 100 |  |  | 21.9 ± 1.15 | 0 | 28.14 ± 0.56 ^^ U/L | 36.51 ± 0.15 ^^ U/L | 0.70 ± 0.02 ^^ mg/dL | 0.17 ± 0.004 ^^ mg/dL | 0.72 ± 0.019 ^^ mg/dL | 55.10 ± 2.96 ^^ mg/dL | survived | No physical or abnormal changes were observed
